According to US20070066628A1 (Wyeth, priority 2005, published 2007):
“And” between values parts separate entries of the source, which are not always exact repeats. Equal entries are not always repeated.

Columns and labels:
[1] = tested on: rat uterine decidualization; assay: Rat decidualization assay; conditions: s.c.; for Estimated EC50 for uterine weight (decidual response): ovariectomized female Sprague-Dawley rats, once daily for seven days, individual studies; for Estimated average EC50 for uterine weight (decidual response): ovariectomized rats, average of dose-response curves
Method: (2) Rat Decidualization Assay
(a) Objective: This procedure is used to evaluate the effect of progestins and antiprogestins on rat uterine decidualization and compares the relative potencies of various test compounds.
(b) Methods • A. Reagents • Test compounds are dissolved in 100% ethanol and mixed with corn oil (vehicle). Stock solutions of the test compounds in oil (the Mazola™ oil) are then prepared by heating (˜80° C.) the mixture to evaporate ethanol. Test compounds are subsequently diluted with 100% corn oil or 10% ethanol in corn oil prior to the treatment of animals. […] Ovariectomy is performed at least 10 days prior to treatment to reduce circulating sex steroids. Animals are housed under 12 hours light/dark cycle and given standard rat chow and water ad libitum. • C. […] Test compounds in 0.2 mL vehicle are administered by subcutaneous injection in the nape of the neck or by gavage using 0.5 mL. The animals are treated once daily for seven days. […] In all studies, a control group receiving vehicle is included. Determination of dose-response curves is carried out using doses with half log increases (e.g. 0.1, 0.3, 1.0, 3.0 mg/kg). • E. Decidual Induction • Approximately 24 hours after the third injection, decidualization is induced in one of the uterine horns by scratching the antimesometrial luminal epithelium with a blunt 21 G needle. The contralateral horn is not scratched and serves as an unstimulated control. Approximately 24 hours following the final treatment, rats are sacrificed by CO2 asphyxiation and body weight measured. Uteri are removed and trimmed of fat. […] The Huber M-estimator is used to down weight the outlying transformed observations for both dose-response curve fitting and one-way analysis of variance. JMP software (SAS Institute, Inc.) is used for both one-way ANOVA and non-linear dose-response analyses. • G. Reference Compounds:
All progestin reference compounds are run in full dose-response curves and the EC50 for uterine wet weight is calculated.

[2] = molecular target: T1, PR (Homo sapiens, UniProt P06401); assay: T47D cell alkaline phosphatase assay; assay type: cell-based; conditions: T47D cells, agonist mode; read-out: Alk. Phos. EC50
T1 construct: Frozen T47D cells were thawed in a 37° C. water bath and diluted to 280,000 cells/mL in culture medium; endogenous in cells; host or cells: T47D cells
T1 sequence (P06401 1-933): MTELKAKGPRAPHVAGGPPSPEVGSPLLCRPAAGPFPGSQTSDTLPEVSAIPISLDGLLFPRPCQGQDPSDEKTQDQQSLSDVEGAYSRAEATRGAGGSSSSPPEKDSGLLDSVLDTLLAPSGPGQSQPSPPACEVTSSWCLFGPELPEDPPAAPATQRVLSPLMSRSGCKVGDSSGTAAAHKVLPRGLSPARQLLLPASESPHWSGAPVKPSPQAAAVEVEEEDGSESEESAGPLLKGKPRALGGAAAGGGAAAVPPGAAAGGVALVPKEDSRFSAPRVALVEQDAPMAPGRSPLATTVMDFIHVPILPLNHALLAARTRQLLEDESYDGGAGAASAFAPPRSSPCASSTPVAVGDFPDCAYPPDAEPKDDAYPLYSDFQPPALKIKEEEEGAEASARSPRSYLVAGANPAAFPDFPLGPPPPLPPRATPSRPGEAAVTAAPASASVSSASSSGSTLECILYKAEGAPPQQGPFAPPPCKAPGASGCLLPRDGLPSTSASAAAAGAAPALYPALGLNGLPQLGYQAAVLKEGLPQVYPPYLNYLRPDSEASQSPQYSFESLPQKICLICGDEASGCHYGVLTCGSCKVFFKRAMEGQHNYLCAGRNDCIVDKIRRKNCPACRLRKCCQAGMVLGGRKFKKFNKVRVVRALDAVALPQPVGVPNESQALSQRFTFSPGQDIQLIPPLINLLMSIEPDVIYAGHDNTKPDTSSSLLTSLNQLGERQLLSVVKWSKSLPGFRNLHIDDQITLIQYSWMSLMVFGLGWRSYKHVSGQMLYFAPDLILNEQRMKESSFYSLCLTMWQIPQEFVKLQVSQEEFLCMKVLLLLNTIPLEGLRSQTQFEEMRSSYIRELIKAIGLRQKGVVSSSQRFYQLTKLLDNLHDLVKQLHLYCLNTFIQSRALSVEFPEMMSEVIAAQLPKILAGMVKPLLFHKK
Method: (4) T47D Cell Alkaline Phosphatase Assay
(a) Purpose: To identify progestins or antiprogestins by determining a compound's effect on alkaline phosphatase activity in T47D cells.
(b) Methods: • A. Reagents • (i) Culture medium: DMEM:F12 (1:1) (GIBCO, BRL) supplemented with 5% (v/v) charcoal stripped fetal bovine serum (not heat-inactivated), 100 U/mL penicillin, […] streptomycin, and 2 mM GlutaMax (GIBCO, BRL). • (ii) Alkaline Phosphatase Assay Buffer • I. 0.1 M Tris-HCl, pH 9.8, containing 0.2% the Triton™ X-100 reagent • II. 0.1 M Tris-HCl, pH 9.8 containing 4 mM p-nitrophenyl phosphate (Sigma). • B. Cell Culture and Treatment • Frozen T47D cells were thawed in a 37° C. water bath and diluted to 280,000 cells/mL in culture medium. To each well in a 96-well plate (Falcon, Becton Dickinson Labware), 180 μL of diluted cell suspension was added. Twenty μL of reference or test compounds diluted in the culture medium was then added to each well. […] The cells were incubated at 37° C. in a 5% CO2/humidified atmosphere for 24 hours. • Note: For high throughput screening, one concentration of each compound was tested at 0.3 mg/mL. […]
Square root-transformed data were used for analysis of variance and nonlinear dose response curve fitting for both agonist and antagonist modes. […] EC50 or IC50 values were calculated from the retransformed values. […]

Row | Estimated average EC50 for uterine weight (decidual response) [1] | EC50 [2] [nM] | Structure (SMILES) | Estimated EC50 for uterine weight (decidual response) [1]
1 | 0.10 mg/kg, s.c. |  | C#C[C@]1(O)CC[C@H]2[C@@H]3CCC4=CC(=O)CC[C@@H]4[C@H]3CC[C@@]21CC [Levonorgestrel] | 0.08 mg/kg, s.c. and 0.12 mg/kg, s.c. and 0.09 mg/kg, s.c. (2×)
2 | 5.62 mg/kg, s.c. |  | CC(=O)[C@H]1CC[C@H]2[C@@H]3CCC4=CC(=O)CC[C@]4(C)[C@H]3CC[C@]12C [Progesterone] | 5.50 mg/kg, s.c.
3 |  | 18.6 | Cn1c(C#N)ccc1-c1ccc2c(c1)C(C)(C)CC2O (stereo not shown) [Example 3, 5-(1-hydroxy-3,3-dimethyl-2,3-dihydro-1H-inden-5-yl)-1-methyl-1H-pyrrole-2-carbonitrile] | 
4 |  |  | CC(=O)O[C@]1(C(C)=O)CC[C@H]2[C@@H]3C[C@H](C)C4=CC(=O)CC[C@]4(C)[C@H]3CC[C@@]21C [MPA, medroxyprogesterone acetate] | 0.42 mg/kg, s.c. and 0.39 mg/kg, s.c. (2×)
5 | 0.10 mg/kg, s.c. |  | C#C[C@]1(O)CC[C@H]2[C@@H]3CCC4=CC(=O)CC[C@@H]4[C@H]3C(=C)C[C@@]21CC [3-Ketodesogestrel] | 
